Measured values published in PubChem BioAssay AID1224921 (Broad Institute, 2016).
Activity calls are given as the source filed them. How the calls were made is not given here.

system: Clostridioides difficile clinical isolate growth, OD600, 24 h; assay: inhibitors of Clostridioides difficile proliferation – 4-point retest, confirmation (AID 1224921)

Compound	AC50
O=C(C[C@H]1C[C@H]2c3cc(NC(=O)Nc4ccccc4)ccc3O[C@H]2[C@H](CO)O1)NC1CCCC1	> 60 µM (inactive)
CO[C@H](CN(C)C(=O)C1CC1)[C@H](C)CN(C(=O)Nc1ccc(C(F)(F)F)cc1)[C@@H](C)CO	14.7 µM
CCNC(=O)C[C@@H]1CC[C@@H]2[C@H](COC[C@@H](O)CN2C(=O)Nc2ccc(Cl)c(Cl)c2)O1	16.5 µM
CN(C)CC(=O)N[C@H]1CC[C@H](CCNC(=O)Nc2ccc(C(F)(F)F)cc2)O[C@H]1CO	10.9 µM
CCCNC(=O)Nc1ccc2c(c1)C(=O)N(C)C[C@@H](OC)[C@@H](C)CN(C)[C@H](C)CO2	> 60 µM (inactive)
O=C(C[C@H]1CC[C@H]2[C@@H](COC[C@@H](O)CN2C(=O)Nc2ccc(Cl)c(Cl)c2)O1)NCc1ccc(F)cc1	1.36 µM
C[C@H](CO)N1C[C@H](C)[C@@H](CN(C)Cc2ccc(-c3ccccc3)cc2)Oc2c(NC(=O)c3ccncc3)cccc2C1=O	6.59 µM
C[C@@H]1CCCCO[C@@H](CN(C)CC2CC2)[C@H](C)CN([C@@H](C)CO)C(=O)c2cc(NC(=O)Nc3ccc(C(F)(F)F)cc3)ccc2O1	17.6 µM
CC(=O)N[C@@H]1CC[C@@H](CCNC(=O)Nc2ccc(C(F)(F)F)cc2)O[C@H]1CO	12.7 µM
C[C@H]1CN([C@@H](C)CO)C(=O)c2cccc(NC(=O)c3ccncc3)c2O[C@@H]1CN(C)Cc1ccc(-c2ccccc2)cc1	1.74 µM
COc1ccc(-c2ccc([C@H]3[C@@H](C#N)N(C(=O)C4CCC4)[C@H]3CO)cc2)cc1	> 70 µM (inactive)
CCCNC(=O)C[C@H]1CC[C@H]2[C@@H](COC[C@@H](O)CN2C(=O)Nc2ccc(Cl)c(Cl)c2)O1	2.78 µM
C[C@@H]1CN([C@@H](C)CO)C(=O)c2cccc(NC(=O)Nc3ccc(F)cc3)c2O[C@@H]1CN(C)Cc1ccc(-c2ccccc2)cc1	< 0.5 µM
O=C(C[C@H]1CC[C@H]2[C@@H](COC[C@H](O)CN2C(=O)Nc2ccc(C(F)(F)F)cc2)O1)NCC1CCCCC1	2.45 µM
CC(=O)N[C@@H]1CC[C@@H](CCNC(=O)Nc2ccc(C(F)(F)F)cc2)O[C@@H]1CO	8.39 µM
C[C@@H]1CN([C@H](C)CO)S(=O)(=O)c2ccc(/C=C/c3ccccc3)cc2O[C@H]1CN(C)Cc1ccc(C(=O)O)cc1	< 0.5 µM
COc1ccc(CN(C)C[C@@H]2OCCCC[C@H](C)Oc3ccc(NC(=O)Nc4cccc5ccccc45)cc3C(=O)N([C@H](C)CO)C[C@H]2C)cc1	22.6 µM
O=C(C[C@H]1CC[C@H]2[C@@H](COC[C@H](O)CN2S(=O)(=O)c2ccc(F)cc2)O1)NCC1CCCCC1	15.4 µM
CCC(=O)N[C@H]1CC[C@H](CCNC(=O)Nc2ccc(C(F)(F)F)cc2)O[C@@H]1CO	3.05 µM
O=C(C[C@@H]1CC[C@@H]2[C@H](COC[C@@H](O)CN2C(=O)Nc2ccc(Cl)c(Cl)c2)O1)NCc1ccncc1	4.07 µM
O=C(C[C@@H]1CC[C@H]2[C@@H](COC[C@@H](O)CN2C(=O)Nc2ccc(C(F)(F)F)cc2)O1)NCCc1ccncc1	4.89 µM
O=C(C[C@@H]1CC[C@H]2[C@@H](COC[C@@H](O)CN2C(=O)Nc2ccc(Cl)c(Cl)c2)O1)NC1CCC1	3.86 µM
O=C(C[C@@H]1CC[C@@H]2[C@H](COC[C@@H](O)CN2C(=O)Nc2ccc(Cl)c(Cl)c2)O1)NC1CCC1	2.82 µM
CCC(=O)Nc1ccc2c(c1)C(=O)N(C)C[C@@H](OC)[C@H](C)CN(C(=O)NC(C)C)[C@@H](C)CO2	> 60 µM (inactive)

Compound	AC50
CO[C@H]1CN(C)C(=O)c2ccc(NC(=O)c3nc4ccccc4s3)cc2OC[C@@H](C)N(Cc2ccncc2)C[C@@H]1C	30.8 µM
C[C@@H]1CN([C@H](C)CO)C(=O)c2cc(C#Cc3ccccc3F)cnc2O[C@H]1CN(C)C	23.3 µM
C[C@@H]1CN([C@@H](C)CO)C(=O)c2cc(NC(=O)Nc3cccc4ccccc34)ccc2O[C@@H](C)CCCCO[C@H]1CN(C)CC1CCCCC1	32.1 µM
O=C(C[C@H]1CC[C@@H]2[C@H](COC[C@@H](O)CN2C(=O)Nc2ccc(Cl)c(Cl)c2)O1)NCc1ccncc1	4.06 µM
C[C@H]1CN([C@@H](C)CO)S(=O)(=O)c2ccc(C#CC3CCCC3)cc2O[C@@H]1CN(C)Cc1cccnc1	> 60 µM (inactive)
C[C@H]1CN([C@@H](C)CO)C(=O)c2ccccc2-c2ccccc2CO[C@H]1CN(C)Cc1ccc(F)cc1	> 16 µM (inactive)
C[C@@H](NC(=O)C[C@H]1CC[C@H]2[C@@H](COC[C@H](O)CN2C(=O)Nc2cccc(Cl)c2)O1)c1ccccc1	9.84 µM
C[C@@H]1CN([C@@H](C)CO)C(=O)c2cc(NC(=O)Nc3ccc(C(F)(F)F)cc3)ccc2O[C@@H](C)CCCCO[C@H]1CN(C)Cc1ccccc1	26.9 µM
C[C@@H]1CN([C@@H](C)CO)C(=O)c2cccc(NC(=O)Nc3ccc(C(F)(F)F)cc3)c2O[C@@H]1CN(C)CC1CCCCC1	3.63 µM
C[C@@H]1CN([C@@H](C)CO)C(=O)c2cccc(NC(=O)Nc3ccccc3)c2O[C@@H]1CN(C)Cc1ccc(C(F)(F)F)cc1	8.02 µM
CCS(=O)(=O)N1[C@H](CO)[C@H](c2ccc(C#CCC3CCCC3)cc2)[C@@H]1C#N	19.8 µM
CO[C@@H]1CN(C)C(=O)c2cc(NC(=O)Nc3cc(Cl)cc(Cl)c3)ccc2OC[C@H](C)NC[C@@H]1C	9.05 µM
CO[C@H]1CN(C)C(=O)c2cc(NC(=O)Nc3cc(Cl)cc(Cl)c3)ccc2OC[C@@H](C)NC[C@H]1C	9.49 µM
O=C(C[C@H]1CC[C@@H]2[C@H](COC[C@@H](O)CN2S(=O)(=O)c2ccc(F)cc2)O1)NCC1CCCCC1	15.8 µM
O=C(C[C@H]1CC[C@H]2[C@@H](COC[C@H](O)CN2C(=O)Nc2ccc(Cl)c(Cl)c2)O1)NC1CCC1	2.03 µM
O=C(C[C@@H]1CC[C@@H]2[C@H](COC[C@H](O)CN2C(=O)Nc2ccc(Cl)c(Cl)c2)O1)NC1CCC1	7.33 µM
O=C(C[C@H]1CC[C@@H]2[C@H](COC[C@@H](O)CN2C(=O)Nc2ccc(Cl)c(Cl)c2)O1)NC1CCC1	8.68 µM
CO[C@H](CN(C)Cc1cc(F)ccc1F)[C@H](C)CN(C(=O)Nc1ccc(C(F)(F)F)cc1)[C@@H](C)CO	7.48 µM
C[C@@H](NC(=O)C[C@@H]1CC[C@@H]2[C@H](COC[C@H](O)CN2C(=O)Nc2cc(Cl)cc(Cl)c2)O1)c1ccccc1	9.64 µM
C[C@@H]1CN([C@H](C)CO)C(=O)c2cc(NC(=O)Nc3ccc(C(F)(F)F)cc3)ccc2O[C@@H](C)CCCCO[C@H]1CN(C)Cc1ccc2c(c1)OCO2	7.9 µM
C[C@@H]1CCCCO[C@H](CN(C)CC2CCCCC2)[C@H](C)CN([C@@H](C)CO)C(=O)c2cc(NS(=O)(=O)c3ccc(Cl)cc3)ccc2O1	14.6 µM
COc1ccccc1CNC(=O)C[C@H]1CC[C@H]2[C@@H](COC[C@H](O)CN2C(=O)Nc2ccc(C(F)(F)F)cc2)O1	12 µM
C=C1CC(c2ccc(-c3ccccc3)cc2)OC1=O (configuration not stated)	13.7 µM
CCC(=O)N[C@H]1CC[C@H](CCNC(=O)Nc2ccc(C(F)(F)F)cc2)O[C@H]1CO	16.5 µM

Compound	AC50
O=C(C[C@H]1CC[C@H]2[C@@H](COC[C@H](O)CN2C(=O)Nc2ccc(Cl)c(Cl)c2)O1)NCc1ccc(Cl)c(Cl)c1	0.886 µM
C[C@@H]1CCCCO[C@H](CN(C)Cc2ccc3c(c2)OCO3)[C@@H](C)CN([C@@H](C)CO)C(=O)c2cc(NS(=O)(=O)c3cccs3)ccc2O1	13.8 µM
O=C(NCC[C@H]1CC[C@@H](NC(=O)Nc2cc(F)ccc2F)[C@H](CO)O1)Nc1ccc(Cl)cc1	18.5 µM
O=C(C[C@@H]1CC[C@H]2[C@@H](COC[C@@H](O)CN2CC2CCCCC2)O1)NCc1ccc(Cl)cc1	> 60 µM (inactive)
CO[C@H](CN(C)C(=O)C1CCOCC1)[C@@H](C)CN(C(=O)Nc1ccc(C(F)(F)F)cc1)[C@H](C)CO	0.831 µM
C[C@@H]1CN([C@@H](C)CO)C(=O)Cc2cc(N(C)C)ccc2O[C@H]1CN(C)Cc1ccc(C(F)(F)F)cc1	29.1 µM
O=C(NCC[C@H]1CC[C@@H](NC(=O)c2cccnc2)[C@H](CO)O1)Nc1ccc(C(F)(F)F)cc1	2.42 µM
CO[C@H]1CN(C)C(=O)c2ccc(NC(=O)c3nc4ccccc4s3)cc2OC[C@H](C)N(Cc2ccncc2)C[C@@H]1C	> 60 µM (inactive)
COc1ccc(C(=O)Nc2ccc3c(c2)OC[C@@H](C)N(C(C)=O)C[C@H](C)[C@@H](OC)CN(C)C3=O)cc1	> 60 µM (inactive)
CNC(=O)C[C@H]1CC[C@@H]2[C@H](COC[C@@H](O)CN2C(=O)Nc2ccc(Cl)c(Cl)c2)O1	8.58 µM
O=C(C[C@H]1CC[C@H](NC(=O)CN2CCOCC2)[C@@H](CO)O1)NCc1cccc(F)c1	> 60 µM (inactive)
C[C@H]1CCCCO[C@@H](CN(C)CC2CCCCC2)[C@@H](C)CN([C@@H](C)CO)C(=O)c2cc(NC(=O)Nc3ccc(C(F)(F)F)cc3)ccc2O1	17.3 µM
CN(C)CC(=O)N[C@@H]1C=C[C@@H](CC(=O)NCCN2CCCCC2)O[C@H]1CO	> 60 µM (inactive)
CCNC(=O)C[C@@H]1CC[C@H]2[C@@H](COC[C@H](O)CN2C(=O)Nc2ccc(Cl)c(Cl)c2)O1	7.98 µM
COc1ccc(NC(=O)Nc2cccc3c2O[C@H](CN(C)Cc2ccc(C(F)(F)F)cc2)[C@H](C)CN([C@@H](C)CO)C3=O)cc1	15.9 µM
CO[C@H](CN(C)S(=O)(=O)c1cn(C)cn1)[C@@H](C)CN(C(=O)Nc1ccc(C(F)(F)F)cc1)[C@@H](C)CO	2.93 µM
COc1ccc(S(=O)(=O)Nc2ccc3c(c2)C(=O)N([C@@H](C)CO)C[C@H](C)[C@@H](CN(C)Cc2ccc4c(c2)OCO4)OCCCC[C@@H](C)O3)cc1	6.68 µM
CO[C@H](CN(C)Cc1cc(F)ccc1F)[C@@H](C)CN(C(=O)Nc1ccc(C(F)(F)F)cc1)[C@H](C)CO	6.43 µM
C[C@H]1CCCCO[C@H](CN(C)CC2CC2)[C@@H](C)CN([C@@H](C)CO)C(=O)c2cc(NC(=O)Nc3ccc(C(F)(F)F)cc3)ccc2O1	5.12 µM
O=C(C[C@@H]1CC[C@@H]2[C@H](COC[C@@H](O)CN2C(=O)Nc2cccc(Cl)c2)O1)N1CCCCC1	18.7 µM
C[C@@H]1CN([C@@H](C)CO)C(=O)Cc2cc(N(C)C)ccc2O[C@H]1CN(C)Cc1ccc(Oc2ccccc2)cc1	19.1 µM
C[C@@H]1CN([C@H](C)CO)C(=O)c2cccc(NC(=O)Nc3ccc(C(F)(F)F)cc3)c2O[C@@H]1CN(C)Cc1ccc(-c2ccccc2)cc1	18.3 µM
O=C1C[C@@](C(=O)NCCN2CCOCC2)(c2ccc([N+](=O)[O-])cc2)[C@@H](c2ccc(CO)cc2I)N1CC12CC3CC(CC(C3)C1)C2	18.8 µM
C[C@@H]1CN([C@H](C)CO)C(=O)c2cc(NC(=O)Nc3ccc(C(F)(F)F)cc3)ccc2O[C@@H](C)CCCCO[C@H]1CN(C)Cc1ccccc1	6.56 µM
